Data on 15 molecules can be found in ChEMBL document CHEMBL1201862, “PubChem BioAssay data set” (2004).

Test systems include NCI-H522; A498; PC-3; Malme-3M; T47D; Hs-578T; MDA-MB-231; MDA-N; SR; EKVX; SF-539; MOLT-4; DU-145; UACC-62; HCT-15; DMS-114; KM-20L2; NCI-H226; DMS-273; SNB-78.
Common to all, as to experiment: NCI-60 cell line screen, 48 h

The structures appear in SMILES notation.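 Dose response: 5 concentrations. Exposure: 48 h. Format: 96-well plates. Endpoint: linear interpolation; highest concentration if not reached. The concentration for 50% growth inhibition is given as GI50.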 Activity calls are given as the source filed them. Rule as the data show it: active = GI50 up to about 1.1 µM and inactive = higher. Where a SMILES comes first, the peptide text is derived from it. [ ]: non-standard residue; d: D form. The star is where a group is joined. ξ: configuration not given here. ξF = NC(Cc1ccccc1)C(=O)O; Cbz = O=C(OCc1ccccc1)*; Aib = CC(C)(N)C(=O)O Some results are limits rather than exact numbers.

For the molecule `CCN(CC)C(=S)N/N=C(\C)c1cccc(C)n1`, the GI50 is 0.0276 µM (active) with NCI-H522; 0.183 µM (active) in the experiment with A498; < 0.01 µM (active) in the experiment with PC-3; 0.0365 µM (active) with Malme-3M; < 0.01 µM (active) in the experiment on T47D; 23.4 µM (inactive) in the experiment on Hs-578T. Besides, the GI50 is < 0.01 µM (active) with MDA-MB-231; 0.474 µM (active) with MDA-N; < 0.0182 µM (active) with SR; < 0.01 µM (active) with EKVX; 0.239 µM (active) with SF-539; < 0.01 µM (active) in the experiment with MOLT-4. For the same molecule, the values for the GI50 with DU-145, with UACC-62 and in the experiment on HCT-15 were 0.484 µM (active), 0.259 µM (active) and below 0.0249 µM, respectively.
For `CCC(C(C)N1CC(=O)NC(=O)C1)N1CC(=O)NC(=O)C1` (stereo not given), the GI50 was 5.65 µM (inactive) in the experiment with NCI-H522; > 100 µM (inactive) with A498; 13.4 µM (inactive) in the experiment on Malme-3M; 7.01 µM (inactive) in the experiment on DMS-114; > 69.2 µM (inactive) in the experiment with KM-20L2; 16.1 µM (inactive) with NCI-H226. Besides, the GI50 in the experiment on EKVX was > 19.7 µM (inactive); in the experiment with SF-539, > 39.7 µM (inactive); with DMS-273 it was 12.3 µM (inactive); in the experiment with SNB-78, > 66.4 µM (inactive); with MOLT-4, 0.69 µM (active); with UACC-62, > 100 µM (inactive). Also, in the experiment with HCT-15, the GI50 is above 49.7 µM.
On to `CN(C)C(=S)SCc1ccccc1`, for which the GI50 with NCI-H522 was 19.8 µM (inactive); with A498 it was 62.5 µM (inactive); with Malme-3M, 27.2 µM (inactive); in the experiment with T47D, 0.033 µM (active); in the experiment with Hs-578T, > 100 µM (inactive); with MDA-MB-231 it was 99.1 µM (inactive). The GI50 in the experiment with NCI-H226 was 54.2 µM (inactive); with MDA-N, > 100 µM (inactive); in the experiment on EKVX, > 100 µM (inactive); in the experiment on SF-539, > 100 µM (inactive); in the experiment on DU-145, > 100 µM (inactive); in the experiment with UACC-62 it was > 100 µM (inactive). Moreover, in the experiment with HCT-15, the GI50 is above 100 µM.
As for `C[N+](C)(N)c1nc(N)c(C#N)c(C#N)c1C#N`, the GI50 in the experiment with NCI-H522, in the experiment on A498, in the experiment on PC-3, in the experiment on Malme-3M, in the experiment on T47D and in the experiment with Hs-578T was > 10 µM (inactive) each time. Further, the GI50 with MDA-MB-231, in the experiment on NCI-H226, in the experiment on MDA-N, with SR, with EKVX and with SF-539 was > 10 µM (inactive) in each case. Besides, the GI50 in the experiment with MOLT-4 was > 10 µM (inactive); in the experiment on DU-145, > 10 µM (inactive); in the experiment on UACC-62, > 10 µM (inactive); with HCT-15, above 10 µM.
Turning to `CC1C/C(=C\c2ccc(O)c(O)c2)C(=O)/C(=C/c2ccc(O)c(O)c2)C1` (stereo not given), the GI50 is 1.81 µM (inactive) with NCI-H522; 3.18 µM (inactive) in the experiment with A498; 14 µM (inactive) in the experiment on PC-3; 10.4 µM (inactive) in the experiment on Malme-3M; 4.57 µM (inactive) in the experiment on T47D; 4.06 µM (inactive) with Hs-578T. Also, the GI50 is 11.3 µM (inactive) with MDA-MB-231; 2.86 µM (inactive) in the experiment with NCI-H226; 4.69 µM (inactive) in the experiment with MDA-N; 3.82 µM (inactive) in the experiment on SR; 14.1 µM (inactive) in the experiment with EKVX; 3.25 µM (inactive) with SF-539. The GI50 in the experiment with MOLT-4 is 4.76 µM (inactive); with DU-145, 8.85 µM (inactive); in the experiment on UACC-62, 3.17 µM (inactive); in the experiment on HCT-15, 8.85 µM.
As for `O=C(O)C1Cc2c([nH]c3ccccc23)C=N1` (stereo not given), the GI50 with NCI-H522, with A498, in the experiment with Malme-3M, in the experiment with DMS-114, in the experiment with KM-20L2 and in the experiment with EKVX was > 100 µM (inactive) each time. Further, the GI50 was > 100 µM (inactive) with SF-539; > 100 µM (inactive) in the experiment with DMS-273; > 100 µM (inactive) with SNB-78; > 100 µM (inactive) in the experiment on MOLT-4; > 100 µM (inactive) in the experiment with UACC-62; above 100 µM in the experiment with HCT-15.
Turning to `Cc1cccc2c1Sc1ccccc1C2NC(=O)CN(C)C` (stereo not given), the GI50 in the experiment on DMS-114 is > 100 µM (inactive); in the experiment with KM-20L2, 18.7 µM (inactive); with NCI-H226 it was > 100 µM (inactive); in the experiment on SR, 54.7 µM (inactive); in the experiment with EKVX it was > 100 µM (inactive); with SF-539 it was > 100 µM (inactive). For the same molecule, the GI50 is > 100 µM (inactive) in the experiment on DMS-273; > 100 µM (inactive) in the experiment with SNB-78; 59.7 µM (inactive) with MOLT-4; > 100 µM (inactive) with UACC-62; above 100 µM in the experiment with HCT-15.
For the molecule `Nc1nc(=S)[nH]c2nc3c(c(-c4ccccc4)c12)CCCC3`, the GI50 with PC-3 is > 100 µM (inactive); in the experiment on Malme-3M it was > 100 µM (inactive); in the experiment on T47D, 60.1 µM (inactive); with Hs-578T, 51.9 µM (inactive); with MDA-MB-231, > 100 µM (inactive); in the experiment with MDA-N it was > 100 µM (inactive). Also, the GI50 with SR is > 100 µM (inactive); in the experiment with EKVX, 50 µM (inactive); in the experiment on SF-539, 71.6 µM (inactive); with MOLT-4, > 100 µM (inactive); in the experiment on DU-145 it was > 100 µM (inactive); with UACC-62, > 100 µM (inactive). In the experiment with HCT-15, this molecule came in with a GI50 above 100 µM.
With `COC1CCC(OS(C)(=O)=O)CO1` (stereo not given), the GI50 with NCI-H522 is > 100 µM (inactive); with A498 it was > 100 µM (inactive); with Malme-3M, > 100 µM (inactive); in the experiment with DMS-114, > 100 µM (inactive); with KM-20L2, > 100 µM (inactive); in the experiment with SR it was 24.7 µM (inactive). Besides, the GI50 in the experiment with SF-539 is > 100 µM (inactive); in the experiment on SNB-78, > 100 µM (inactive); in the experiment on MOLT-4 it was 20.6 µM (inactive); in the experiment with UACC-62 it was > 100 µM (inactive).
As to `CCSc1ncnc2c(C3OC(CO)C(O)C3O)nsc12` (stereo not given), the GI50 in the experiment with A498, in the experiment with PC-3, with Malme-3M, with T47D, in the experiment on Hs-578T and with MDA-MB-231 was > 100 µM (inactive) in each case. In addition, the GI50 in the experiment on NCI-H226, with MDA-N, with SR, in the experiment with EKVX, in the experiment on SF-539 and in the experiment with MOLT-4 was > 100 µM (inactive) throughout. Further, the GI50 was > 100 µM (inactive) in the experiment on DU-145 and above 100 µM with HCT-15.
For `O=Cc1c(Br)[nH]c2ccccc12`, the GI50 is 61.2 µM (inactive) in the experiment on NCI-H522; > 100 µM (inactive) in the experiment with A498; > 100 µM (inactive) in the experiment on Malme-3M; > 100 µM (inactive) in the experiment on KM-20L2; > 58.3 µM (inactive) in the experiment with NCI-H226; > 100 µM (inactive) with EKVX. For the same molecule, the GI50 in the experiment with SF-539 was > 100 µM (inactive); in the experiment on DMS-273, > 100 µM (inactive); with SNB-78 it was > 67 µM (inactive); in the experiment on MOLT-4, 27 µM (inactive); with UACC-62, 47 µM (inactive); in the experiment on HCT-15, above 100 µM.
Regarding `COc1ccc(NC2=NCCO2)c2ccccc12`, the GI50 with NCI-H522, in the experiment with A498, with PC-3, with Malme-3M, with T47D and with Hs-578T was > 10 µM (inactive) in each case. Also, the GI50 in the experiment on MDA-MB-231 is > 10 µM (inactive); with NCI-H226 it was 3.03 µM (inactive); in the experiment with MDA-N, > 10 µM (inactive); with SR it was > 10 µM (inactive); with EKVX, > 10 µM (inactive); with SF-539, > 10 µM (inactive). Besides, the GI50 is > 10 µM (inactive) in the experiment with MOLT-4, > 10 µM (inactive) with DU-145, > 10 µM (inactive) in the experiment with UACC-62 and above 10 µM with HCT-15.
On to `O=C(NCCCNC(=O)c1ccc2cc(O)c(O)cc2c1)c1ccc2cc(O)c(O)cc2c1`, for which the GI50 was 29.6 µM (inactive) in the experiment on NCI-H522; 63.4 µM (inactive) in the experiment with A498; 27.4 µM (inactive) in the experiment with PC-3; 28.6 µM (inactive) with Malme-3M; 26.7 µM (inactive) in the experiment on T47D; 18.4 µM (inactive) in the experiment on NCI-H226. For the same molecule, the GI50 with MDA-N is 31.7 µM (inactive); in the experiment with SR it was 25.3 µM (inactive); in the experiment with EKVX it was 27.9 µM (inactive); with SF-539, 16.5 µM (inactive); in the experiment on MOLT-4, 30 µM (inactive); in the experiment with DU-145, 26.7 µM (inactive). Also, the GI50 with UACC-62 was 20 µM (inactive); in the experiment with HCT-15, 19.9 µM.
Regarding `COc1ccccc1-c1cc(O)c2c(C)cc(C)nc2n1`, the GI50 in the experiment with NCI-H522 was 43.7 µM (inactive); with A498, 39.6 µM (inactive); in the experiment with Malme-3M, 48 µM (inactive); in the experiment with T47D, 8.13 µM (inactive); in the experiment with Hs-578T, > 100 µM (inactive); in the experiment with MDA-MB-231, 84.3 µM (inactive). The GI50 is > 100 µM (inactive) with NCI-H226; 67.5 µM (inactive) with EKVX; > 100 µM (inactive) in the experiment with SF-539; 30 µM (inactive) in the experiment with MOLT-4; > 100 µM (inactive) with DU-145; 71.9 µM (inactive) in the experiment on UACC-62. The same molecule gave a GI50 with HCT-15 of 58.3 µM.
With `COC(=O)C(C)(C)NC(=O)C(Cc1ccccc1)NC(=O)C(C)(C)NC(=O)OCc1ccccc1` (stereo not given) (Cbz-[Aib]-[ξF]-[Aib]-OMe), the GI50 with NCI-H522 is > 100 µM (inactive); in the experiment with A498 it was 24.3 µM (inactive); in the experiment with PC-3 it was > 100 µM (inactive); with Malme-3M, > 100 µM (inactive); in the experiment on T47D, > 100 µM (inactive); with MDA-MB-231, > 100 µM (inactive). In addition, the GI50 in the experiment on MDA-N is > 100 µM (inactive); in the experiment on EKVX it was > 100 µM (inactive); in the experiment on MOLT-4 it was > 100 µM (inactive); with DU-145, > 100 µM (inactive); in the experiment with UACC-62, > 100 µM (inactive); in the experiment with HCT-15, above 100 µM.
